Reference: paper PMC8596838, “Xylose‐Configured Cyclophellitols as Selective Inhibitors for Glucocerebrosidase” (Chembiochem, 2021)
Residue numbers refer to the chain shown, from its start.

What was measured:
GBA = molecular target: T1, GBA (Homo sapiens, UniProt P04062); assay: Inhibition in intact HEK293T cells (24 h), read out by cABPP with ABP 10, GBA; format: cell-based; details: for IC50: 24 h treatment, cABPP quantification, n=3
T1 construct: HEK293T cells that contain endogenous GBA; endogenous in cells; host or cells: HEK293T (ATCC CRL-3216) overexpressing GBA2 and GBA3
T1 sequence (P04062 40-536): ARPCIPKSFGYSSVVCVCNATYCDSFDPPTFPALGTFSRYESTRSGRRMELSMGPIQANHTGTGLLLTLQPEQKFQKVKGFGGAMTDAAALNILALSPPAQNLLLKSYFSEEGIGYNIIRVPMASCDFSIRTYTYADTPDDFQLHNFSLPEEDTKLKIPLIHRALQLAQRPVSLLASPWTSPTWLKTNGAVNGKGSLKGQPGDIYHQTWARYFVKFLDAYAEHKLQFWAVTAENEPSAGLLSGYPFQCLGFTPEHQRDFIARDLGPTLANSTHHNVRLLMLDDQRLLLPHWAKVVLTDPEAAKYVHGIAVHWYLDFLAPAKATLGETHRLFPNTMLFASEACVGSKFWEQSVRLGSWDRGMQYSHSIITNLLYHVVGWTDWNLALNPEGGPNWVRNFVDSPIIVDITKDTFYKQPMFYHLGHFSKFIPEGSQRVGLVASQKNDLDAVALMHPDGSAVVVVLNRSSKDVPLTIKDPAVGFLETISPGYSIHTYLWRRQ
Text: We next examined the activity of 1 and 2 towards the three human β‐D‐glucosidase in intact HEK293T cells. […] It is noted that the GBA‐selectivity of both compounds is much improved in intact cells than in the in vitro system (Figure 2 and Table 1). This is especially true for compound 1, where an impressive 4‐logs of selectivity window is observed.
Figure 5 Inhibitory effect of β‐D‐xylo‐configured cyclophellitol 1 and cyclophellitol aziridine 2 on β‐glucosidases in intact HEK293T cells expressing GBA, GBA2 and GBA3. (A) Representative gel images of cABPP where cells were treated for 24 h with indicated inhibitor. Lysates were then prepared and labeled with fluorescent ABP 10. Fluorescently labeled proteins were visualized after SDS‐PAGE (1 set from n=3 replicates). (B) IC50 curves determined by cABPP labeling results. (C) Apparent IC50 values towards β‐glucosidases in intact HEK293T cells producing GBA, GBA2 and GBA3 were determined by the fluorescence quantification based on cABPP SDS‐PAGE results.
ABP labeling procedure: Glycosidases were labeled with excess fluorescent ABPs at optimum conditions. […] After ABP incubation, proteins were denatured by boiling the samples with 5× Laemmli buffer (50 % (v/v) 1 M Tris‐HCl, pH 6.8, 50 % (v/v) 100 % glycerol, 10 % (w/v) DTT, 10 % (w/v) SDS, 0.01 % (w/v) bromophenol blue) for 5 min at 98 °C, and separated by electrophoresis on 10 % (w/v) SDS‐PAGE gels running continuously at 90 V. Wet slab‐gels were scanned on fluorescence using the Typhoon FLA 9500 (GE Healthcare) at λEX 473 nm and λEM≥510 nm for green fluorescent ABP 8; and at λEX 635 nm and λEM≥665 nm for ABP 6, 9 and 10. ABP‐emitted fluorescence was quantified using ImageQuant software (GE Healthcare, Chicago, IL, USA) and curve‐fitted using Prism 8.0 (GraphPad Software). After fluorescence scanning, SDS‐PAGE gels were stained for total protein with Coomassie G250 and scanned on a ChemiDoc MP imager (Bio‐Rad, Hercules, CA, USA).[25] […]

[1] = molecular target: T2, rhGBA (recombinant human GBA, Imiglucerase) (Homo sapiens, UniProt P04062, R534H); assay: Fluorogenic substrate (4-MU-β-D-glucoside) enzymatic assay, rhGBA; format: biochemical; details: for IC50: enzymatic assay performed for 3 h, n=3, read-out: In vitro apparent IC50 rhGBA, 3 h
T2 construct: purchased Sanofi Genzyme (Cambridge, MA, USA)
T2 sequence (P04062 40-536 R534H): T1 sequence (P04062 40-536) with R495H

selectivity window for GBA in intact cells (GBA; 24 h) | SMILES | IC50 (GBA) | IC50 [1] | increase in inhibitory activity towards GBA of aziridines relative to epoxide analogues ([1]; in vitro 3 h)
4 logs | O[C@@H]1[C@@H](O)[C@H](O)C[C@H]2O[C@@H]12 [compound 1, xylo‐cyclophellitol] | 5.71 nM | 450 ± 20 nM | 
 | O[C@@H]1[C@@H](O)[C@H](O)C[C@H]2N[C@@H]12 [compound 2, β‐D‐xylo‐Cyclophellitol aziridine] | 42.2 nM | 240 ± 30 nM | less than two‐fold increase
